For assay [1], the system named is AMPK-related kinases (NUAK2, QIK, QSK, SIK, MARK1, MARK2/3, MARK4). Description: Activity of endogenous AMPK-related kinases immunoprecipitated from MEFs after drug stimulation. The class given is cell-based, mouse. To be noted: 1 h. The procedure:
FIG. 27 Activity of AMPK-related kinases in LKB1+/+ and LKB1^−/− MEFs. LKB1^+/+ or LKB1^−/− MEFs were either left untreated (black bars) or stimulated with 10 mM phenformin (Phen, white bars) for 1 h. AMPKα1 and AMPK-related kinases were immunoprecipitated from the cell lysates, and in vitro kinase activity towards the AMARA peptide was measured as described in Materials and Methods (Example 4). To confirm equal expression of the kinases in each sample, cell lysates (AMPKα1, NUAK2, MARK2/3 and MARK4) or immunoprecipitated proteins (QIK, QSK, SIK and MARK1) were subjected to SDS-PAGE and western blot analysis. All AMPK-related kinases migrated with the expected molecular mass. In the case of AMPKα1, cell lysates were immunoblotted with a phospho Thr172 antibody (P-AMPK), that recognises the phosphorylated T-loop. […]
FIG. 28. […] AMPKα1/a2 and LKB1 were immunoprecipitated from the cell lysates, and in vitro kinase activity towards the AMARA and LKBtide peptides respectively, were measured as described in Materials and Methods (Example 4). […] AMPKα1 and the indicated AMPK-related kinases were immunoprecipitated from the cell lysates, and in vitro kinase activity towards the AMARA peptide measured as described in Materials and Methods. […]
Cell culture, stimulation and cell lysis. […] Protein concentrations were determined by the Bradford method with bovine serum albumin as the standard (Bradford, 1976). […]

The next assay has as its target T1, LKB1 (Mus musculus, UniProt Q9WTK7).
T1 construct: AMPKα1/a2 and LKB1 were immunoprecipitated from the cell lysates; endogenous in cells; host or cells: LKB1+/+ MEFs
Description: Activity of endogenous LKB1 immunoprecipitated from LKB1+/+ MEFs, LKBtide substrate. The class given is cell-based. To be noted: 1 h. The procedure:
FIG. 28. […] (A) LKB1^+/+ MEFs were either left untreated or stimulated with the indicated concentrations of phenformin (Phen) for 1 h. AMPKα1/a2 and LKB1 were immunoprecipitated from the cell lysates, and in vitro kinase activity towards the AMARA and LKBtide peptides respectively, were measured as described in Materials and Methods (Example 4). (B) To confirm equal expression of the kinases in each sample, cell lysates were subjected to SDS-PAGE and western blot analysis with the indicated antibodies. The phospho pT172 antibody (P-AMPK) recognises the phosphorylated T-loop of AMPKα1. […] AMPKα1 and the indicated AMPK-related kinases were immunoprecipitated from the cell lysates, and in vitro kinase activity towards the AMARA peptide measured as described in Materials and Methods. […]
Cell culture, stimulation and cell lysis. […] Protein concentrations were determined by the Bradford method with bovine serum albumin as the standard (Bradford, 1976).
0.1-1 mg Hela or MEF cell lysate protein was incubated at 4° C. for 1 h on a shaking platform with 5 μl of protein G-Sepharose conjugated to 5 μg of human LKB1 antibody. […] The p81 membranes were washed in phosphoric acid, and the incorporated radioactivity was measured by scintillation counting as described previously for MAP kinase (Alessi et al., 1995).

T1 sequence (Q9WTK7 1-433 limits assumed): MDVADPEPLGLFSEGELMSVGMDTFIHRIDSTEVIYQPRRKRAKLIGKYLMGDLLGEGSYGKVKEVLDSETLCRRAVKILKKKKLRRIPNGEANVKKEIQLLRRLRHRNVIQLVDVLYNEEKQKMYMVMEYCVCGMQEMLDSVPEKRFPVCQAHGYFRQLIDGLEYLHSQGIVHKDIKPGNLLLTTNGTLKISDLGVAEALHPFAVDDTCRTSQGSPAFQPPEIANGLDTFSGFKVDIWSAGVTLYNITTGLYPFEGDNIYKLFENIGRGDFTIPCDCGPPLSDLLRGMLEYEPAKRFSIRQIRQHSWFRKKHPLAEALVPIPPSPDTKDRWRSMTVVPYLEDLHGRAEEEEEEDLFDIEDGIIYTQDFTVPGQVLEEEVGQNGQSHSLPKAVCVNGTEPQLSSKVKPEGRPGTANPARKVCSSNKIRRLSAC
T1 sequence (Q3UUJ4 whole entry partner): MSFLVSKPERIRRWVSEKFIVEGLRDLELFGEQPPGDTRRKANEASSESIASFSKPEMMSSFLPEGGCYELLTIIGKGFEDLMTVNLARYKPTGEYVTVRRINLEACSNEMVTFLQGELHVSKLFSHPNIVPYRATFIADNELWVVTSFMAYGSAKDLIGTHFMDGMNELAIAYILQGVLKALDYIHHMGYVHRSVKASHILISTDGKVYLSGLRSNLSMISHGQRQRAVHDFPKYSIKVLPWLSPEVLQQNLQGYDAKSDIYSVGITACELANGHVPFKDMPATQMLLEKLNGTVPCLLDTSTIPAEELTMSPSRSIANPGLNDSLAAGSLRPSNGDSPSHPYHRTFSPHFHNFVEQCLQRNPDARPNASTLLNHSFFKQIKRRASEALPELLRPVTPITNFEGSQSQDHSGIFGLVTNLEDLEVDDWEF
T1 sequence (Q06138 whole entry partner): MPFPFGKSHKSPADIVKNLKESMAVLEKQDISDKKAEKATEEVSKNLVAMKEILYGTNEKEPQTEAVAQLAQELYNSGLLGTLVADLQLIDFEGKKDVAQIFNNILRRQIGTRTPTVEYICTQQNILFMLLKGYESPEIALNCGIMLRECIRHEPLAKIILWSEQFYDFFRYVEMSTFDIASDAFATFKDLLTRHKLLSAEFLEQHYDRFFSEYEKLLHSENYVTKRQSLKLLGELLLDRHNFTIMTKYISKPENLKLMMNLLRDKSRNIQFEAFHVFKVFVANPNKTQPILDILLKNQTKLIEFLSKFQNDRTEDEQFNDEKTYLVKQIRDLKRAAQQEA

On to `NC(=O)c1ncn([C@@H]2O[C@H](CO)[C@@H](O)[C@H]2O)c1N` [AICA riboside, 5-aminoimidazole-4-carboxamide (AICA) riboside], for which the “activity of AMPK-related kinases” value in assay [1] (LKB1+/+ MEFs, 2 mM AICA riboside) is reported as “failed to markedly activate”. Further, the LKB1 activity entry on LKB1 is recorded as “do not activate LKB1 directly”.
For `[H]/N=C(/N)N/C(=N/[H])NCCc1ccccc1` [phenformin], the “activity of AMPK-related kinases” value in assay [1] (MEFs, 10 mM phenformin) is recorded as “not significantly stimulated”. For the same molecule, the LKB1 activity result on LKB1 is “did not stimulate LKB1 activity”.
